Laboratory results published in patent US20240115672A1, “TREATMENT OF AN IOP CONDITION” (THE RESEARCH FOUNDATION FOR THE STATE UNIVERSITY OF NEW YORK, priority 2021, published 2024).

Tests used:
[1] = tested on: sheep of the Coriedale breed; test: IOP in prednisolone-treated sheep after tPA injection into the anterior chamber (Example 9); assay type: in vivo
Procedure: Methods. Lyophilized IPA, obtained as Acetilyse® from Boehringer Ingelheim S.A. (Buenos Aires) containing arginine. was used. Five sheep of the Coriedale breed were selected. Initially all eyes received instillation of 1% prednisolone 3 times/day for 10 days to elevate their IOP from 10 mm Hg to about 23 mm Hg. Then, 0.0001 μg was injected into one of the eyes and its effect was followed for up to 55:00 hrs while the instillation of prednisolone continued in both eyes. The same protocol was implemented for the 0.001 and 0.01 μg amounts (after extended washout) in the contra lateral eyes. Arginine, which is associated with 0.01 ug tPA, was injected alone and had no effect.

[2] = tested on: MMP-2, MMP-9, MMP-13 expression in HTM cells; test: MMP expression in HTM cells (Examples 17, 18); assay type: cell-based, human; details: for MMP-9 expression compared to PA+NE-tPA treated cells: p<0.0001
[3] = tested on: Mmp-2, Mmp-9, Mmp-13 mRNA in angle ring tissues; test: Mmp expression in Tg-MYOCY437H angle ring tissues (Example 19); assay type: in vivo, mouse; details: 5 days treatment
Procedure: Eyes were flash frozen in liquid nitrogen after outflow facility determination and subsequently dissected on ice to obtain the angle ring tissues containing the TM, as previously described (Kumar, Shah et al. 2013). Dissected TM tissues were immersed in RNAlater solution (Invitrogen, Waltham, MA, USA) and then snap-frozen and stored at −80° C. until RNA extraction. Tissue collected was pooled (four eyes) and homogenized in TRIzol reagent for RNA isolation, per manufacturer's instructions (Life Technologies, Carlsbad, CA, USA). RNA concentration was determined with a Nanodrop ND-1000 Spectrophotometer (Thermo Scientific, Wilmington, DE, USA). cDNA was synthesized by using High-Capacity cDNA
Reverse Transcription Kit (Applied Biosystems, Waltham, MA, USA) according to manufacturer's protocol. Quantitative real-time PCR (qRT-PCR) was performed by using Green-2-Go qPCR Mastermix-ROX (Bio Basic, Amherst, NY, USA) on a QuantStudio 6 Flex thermal cycler (Applied Biosystems, Carlsbad, CA, USA). mRNA expression of Plat, Plait, Pai-1, Mmp-2, Mmp-9, and Mmp-13 in angle ring tissues was determined. Primers were designed by using Primer-BLAST (haps://www.ncbi.nlm.nih.gov/tools/primer-blast/index.cgi?LINK_LOC=BlastHome; in the public domain); primer sequences are listed in Table 2. Primer specificity was confirmed by agarose gel electrophoresis and multiple-sized amplification products were absent on inspection of melting curves. Target mRNA expression values were normalized to the expression levels of Rps11 (ribosomal protein S11). The relative fold change was calculated by using the ΔΔCt method (Hu, Wang et al. 2015). Outliers identified via the Thompson Tau test were removed from analysis.

Tg-MYOCY437H mice = details: systemic and topical administration; cited from earlier work
sheep = test: Sheep given tPA or arginine concurrently with prednisolone (Example 3 Protocol 2, Example 4); assay type: in vivo; details: 4.23 mg arginine intravitreal plus prednisolone (OS) compared to tPA and prednisolone (OD)
Procedure: Protocol 2. In a second set of experiments, arginine was added to the BSS vehicle administered to the left eye to control for the relatively high concentration of the amino acid in the commercially available tPA lyophilisate. In these experiments all right eyes received 0.1 mg tPA, which concomitantly delivered 4.23 mg of arginine into the vitreous, and the left eye received this same amount of arginine, absent the tPA. On Day 1, prednisolone treatments were also begun simultaneously on both eyes.
Methods. In this experiment, the inventor sought to detect the effects of tPA treatment on prevention of steroid-induced IOP elevation. In 4 sheep tPA was injected in one eye (100 μg) and they were started on prednisolone acetate three times a day in both eyes. Animals were monitored for 11 days on continuous treatment.

## CC(=O)OCC(=O)[C@@]1(O)CC[C@H]2[C@@H]3CCC4=CC(=O)C=C[C@]4(C)[C@H]3[C@@H](O)C[C@@]21C [prednisolone, prednisolone acetate]
[1]; 1% prednisolone 3 times/day for 10 days, from 10 mm Hg
  IOP after prednisolone: about 23 mm Hg
[2]; PA treated HTM cells
  MMP-13 expression (FIG. 17D): below detection limits

## O=C([O-])CCCc1ccccc1.[Na+] [PBA, sodium phenylbutarate]
[3]
  Mmp-9 expression compared to BSA treated eyes: higher
  Mmp-13 expression compared to BSA treated eyes: did not show any difference
[3]; p>0.05
  Mmp-2 expression compared to BSA treated eyes: no significant difference
Tg-MYOCY437H mice
  effect on IOP: effective in reducing IOP

## N=C(N)NCCC[C@H](N)C(=O)O [arginine]
sheep
  effect of arginine alone: failed to reduce outflow facility
[1]; amount associated with 0.01 ug tPA
  effect of arginine injected alone: no effect

## C[C@]12N[C@H](Cc3ccccc31)c1ccccc12 [MK-801]
[2]; inhibitor added to PA+NE-tPA
  MMP-9 expression compared to PA+NE-tPA treated cells: significantly lower
[2]; inhibitor added to PA+NE-tPA, p<0.05
  MMP-2 expression compared to PA+NE-tPA treatment: significant reduction

B1: RAP: inhibitor of LRP1 (protein, UniProt P30533 35-357, looked up)
Alpha-2-macroglobulin …: YSREKNQPKPSPKRESGEEFRMEKLNQLWEKAQRLHLPPVRLAELHADLKIQERDELAWKKLKLDGLDEDGEKEARLIRNLNVILAKYGLDGKKDARQVTSNSLSGTQEDGLDDPRLEKLWHKAKTSGKFSGEELDKLWREFLHHKEKVHEYNVLLETLSRTEEIHENVISPSDLSDIKGSVLHSRHTELKEKLRSINQGLDRLRRVSHQGYSTEAEFEEPRVIDLWDLAQSANLTDKELEAFREELKHFEAKIEKHNHYQKQLEIAHEKLRHAESVGDGERVSRSREKHALLEGRTKELGYTVKKHLQDLSGRISRARHNEL
[2]; inhibitor added to PA+NE-tPA
  MMP-9 expression compared to PA+NE-tPA treated cells: significantly lower
